The values below are quoted from earlier work in US10449194B2 (Tocagen Inc., priority 2008, dated 2019).

[1] abbreviates: patients with normal renal function.

Like-named read-outs stand apart in the source and are kept apart here.

On to `Nc1nc(=O)[nH]cc1F` [Example 5-FC, 5-fluorocytosine], for which, where the note is “2 gram oral dose, normal subjects”, the “Time to peak serum concentrations” value is no more than 2 h. The “Serum level above which toxicity generally occurs” value (Vermes et al. 2000) is greater than 100 µg/mL. In addition, where the note is “nephrectomized or anuric patients”, the Average half-life is 85 h. The “Bioavailability (absorption) after oral administration” value (oral vs intravenous AUC of serum concentrations) is listed as 76-89%. Further, under setting [1], the “Half-life in the serum” value was 2 to 5 h; the “Time to peak concentrations in serum and other body fluids” value is 1 to 2 h. For the same molecule, where the note is “patients with severe renal insufficiency”, the “Half-life in the serum” value is reported as “up to 85 h”.
